Experimental data from ChEMBL document CHEMBL3991601, “The target landscape of clinical kinase drugs” (Science, 2017).
Calls of active or inactive are those of the source. Rule as the data show it, for most assays here: actives have a measured Kd and inactives only a lower limit.

Legend:
[1] = target: T1, Structural maintenance of chromosomes protein 1A (Homo sapiens, UniProt Q14683)
T1 sequence (Q14683 whole entry): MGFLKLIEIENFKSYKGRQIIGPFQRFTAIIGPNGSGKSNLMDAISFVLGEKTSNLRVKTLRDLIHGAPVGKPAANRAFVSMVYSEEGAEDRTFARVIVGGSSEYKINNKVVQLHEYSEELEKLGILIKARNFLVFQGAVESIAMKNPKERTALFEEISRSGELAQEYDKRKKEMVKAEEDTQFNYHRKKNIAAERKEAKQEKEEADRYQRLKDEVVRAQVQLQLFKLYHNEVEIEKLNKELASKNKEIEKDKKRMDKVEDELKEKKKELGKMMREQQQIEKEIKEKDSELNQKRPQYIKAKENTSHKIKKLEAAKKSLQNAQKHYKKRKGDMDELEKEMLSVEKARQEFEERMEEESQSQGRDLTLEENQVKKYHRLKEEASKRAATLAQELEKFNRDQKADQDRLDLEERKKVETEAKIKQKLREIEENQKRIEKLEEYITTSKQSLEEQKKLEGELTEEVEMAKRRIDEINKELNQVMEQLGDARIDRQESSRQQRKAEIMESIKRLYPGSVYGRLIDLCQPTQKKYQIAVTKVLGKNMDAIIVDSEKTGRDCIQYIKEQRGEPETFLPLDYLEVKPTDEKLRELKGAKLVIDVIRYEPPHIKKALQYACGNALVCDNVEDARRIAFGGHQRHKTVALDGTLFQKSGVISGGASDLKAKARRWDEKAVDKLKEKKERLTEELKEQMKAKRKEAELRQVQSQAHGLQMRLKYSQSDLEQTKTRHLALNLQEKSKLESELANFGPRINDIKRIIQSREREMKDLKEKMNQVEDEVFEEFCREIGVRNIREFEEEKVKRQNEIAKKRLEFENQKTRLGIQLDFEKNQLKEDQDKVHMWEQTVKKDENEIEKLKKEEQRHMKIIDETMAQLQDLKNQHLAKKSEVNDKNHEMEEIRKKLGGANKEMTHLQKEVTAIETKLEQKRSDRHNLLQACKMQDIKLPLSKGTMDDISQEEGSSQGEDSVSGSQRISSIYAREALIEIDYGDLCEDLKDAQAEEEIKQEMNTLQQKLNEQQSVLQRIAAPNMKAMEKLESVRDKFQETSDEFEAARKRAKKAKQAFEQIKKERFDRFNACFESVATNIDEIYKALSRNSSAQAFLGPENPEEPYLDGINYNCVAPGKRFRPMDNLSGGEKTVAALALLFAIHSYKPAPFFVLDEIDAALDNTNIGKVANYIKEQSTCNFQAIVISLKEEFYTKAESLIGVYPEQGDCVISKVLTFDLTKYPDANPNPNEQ

[2] = target: Serine/threonine-protein kinase 26 (Homo sapiens, UniProt Q9P289)
Chain of Serine/threonine-protein kinase 26 (Q9P289 whole entry): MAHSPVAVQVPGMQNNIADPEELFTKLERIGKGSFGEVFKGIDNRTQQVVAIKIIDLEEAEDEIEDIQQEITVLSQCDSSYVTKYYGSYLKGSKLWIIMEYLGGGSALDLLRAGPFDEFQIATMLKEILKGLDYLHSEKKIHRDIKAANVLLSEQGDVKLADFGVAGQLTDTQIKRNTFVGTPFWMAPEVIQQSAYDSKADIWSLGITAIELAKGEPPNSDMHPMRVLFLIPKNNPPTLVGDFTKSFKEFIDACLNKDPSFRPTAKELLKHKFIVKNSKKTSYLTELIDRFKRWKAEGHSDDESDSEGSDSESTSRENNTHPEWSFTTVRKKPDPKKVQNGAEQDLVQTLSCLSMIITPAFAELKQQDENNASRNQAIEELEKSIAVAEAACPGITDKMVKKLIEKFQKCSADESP

[3] = target: T2, Mitogen-activated protein kinase kinase kinase kinase 3 (Homo sapiens, UniProt Q8IVH8)
T2 sequence (Q8IVH8 whole entry): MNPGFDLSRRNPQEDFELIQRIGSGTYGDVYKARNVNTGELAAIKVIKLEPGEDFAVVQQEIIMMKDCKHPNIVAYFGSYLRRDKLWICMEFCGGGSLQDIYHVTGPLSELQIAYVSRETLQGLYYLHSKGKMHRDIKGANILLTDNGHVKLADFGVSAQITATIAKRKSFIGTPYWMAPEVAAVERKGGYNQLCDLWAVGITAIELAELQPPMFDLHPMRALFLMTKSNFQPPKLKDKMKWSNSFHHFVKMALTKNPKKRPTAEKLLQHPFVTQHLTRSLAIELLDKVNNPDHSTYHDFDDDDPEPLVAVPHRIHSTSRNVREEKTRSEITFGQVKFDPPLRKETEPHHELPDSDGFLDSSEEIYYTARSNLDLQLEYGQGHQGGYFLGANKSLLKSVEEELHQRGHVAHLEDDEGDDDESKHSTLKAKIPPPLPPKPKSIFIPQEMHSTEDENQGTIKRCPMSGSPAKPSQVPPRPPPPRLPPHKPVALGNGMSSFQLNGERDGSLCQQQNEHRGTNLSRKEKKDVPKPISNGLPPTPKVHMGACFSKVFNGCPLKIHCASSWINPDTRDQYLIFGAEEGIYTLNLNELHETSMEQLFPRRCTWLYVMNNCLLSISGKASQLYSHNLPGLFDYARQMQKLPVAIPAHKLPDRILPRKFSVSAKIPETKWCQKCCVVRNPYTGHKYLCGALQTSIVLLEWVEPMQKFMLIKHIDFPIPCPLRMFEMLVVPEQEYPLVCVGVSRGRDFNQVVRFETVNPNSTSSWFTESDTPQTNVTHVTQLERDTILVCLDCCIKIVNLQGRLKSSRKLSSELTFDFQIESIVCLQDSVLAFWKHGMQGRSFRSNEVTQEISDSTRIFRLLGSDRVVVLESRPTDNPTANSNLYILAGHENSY

[4] = target: Cyclin-dependent kinase 1 (Homo sapiens, UniProt P06493)
Chain of Cyclin-dependent kinase 1 (P06493 whole entry): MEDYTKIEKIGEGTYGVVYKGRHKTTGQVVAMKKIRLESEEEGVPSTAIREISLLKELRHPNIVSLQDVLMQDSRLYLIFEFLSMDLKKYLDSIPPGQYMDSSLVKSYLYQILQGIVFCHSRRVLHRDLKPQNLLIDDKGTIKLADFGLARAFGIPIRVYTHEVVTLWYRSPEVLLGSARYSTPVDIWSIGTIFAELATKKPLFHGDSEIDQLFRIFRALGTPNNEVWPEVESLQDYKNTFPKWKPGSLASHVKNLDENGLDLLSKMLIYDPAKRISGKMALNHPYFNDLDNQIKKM

[5] = target: T3, Mitogen-activated protein kinase kinase kinase 2 (Homo sapiens, UniProt Q9Y2U5)
T3 sequence (Q9Y2U5 whole entry): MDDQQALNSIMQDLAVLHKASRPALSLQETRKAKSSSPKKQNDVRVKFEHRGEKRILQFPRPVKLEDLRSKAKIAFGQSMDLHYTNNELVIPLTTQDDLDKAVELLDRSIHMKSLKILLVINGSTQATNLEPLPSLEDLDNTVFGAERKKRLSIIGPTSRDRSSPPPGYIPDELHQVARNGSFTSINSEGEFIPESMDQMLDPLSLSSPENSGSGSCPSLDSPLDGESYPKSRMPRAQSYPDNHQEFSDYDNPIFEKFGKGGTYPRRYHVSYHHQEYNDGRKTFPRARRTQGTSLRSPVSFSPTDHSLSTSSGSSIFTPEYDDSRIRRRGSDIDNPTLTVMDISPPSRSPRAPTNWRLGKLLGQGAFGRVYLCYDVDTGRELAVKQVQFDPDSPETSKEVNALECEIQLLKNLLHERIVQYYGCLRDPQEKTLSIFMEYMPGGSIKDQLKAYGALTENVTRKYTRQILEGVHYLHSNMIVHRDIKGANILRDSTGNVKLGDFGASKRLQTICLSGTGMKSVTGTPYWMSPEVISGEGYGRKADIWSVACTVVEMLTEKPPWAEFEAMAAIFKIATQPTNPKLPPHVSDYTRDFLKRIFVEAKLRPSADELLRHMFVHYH

[6] = target: MAP/microtubule affinity-regulating kinase 3 (Homo sapiens, UniProt P27448)
Chain of MAP/microtubule affinity-regulating kinase 3 (P27448 whole entry): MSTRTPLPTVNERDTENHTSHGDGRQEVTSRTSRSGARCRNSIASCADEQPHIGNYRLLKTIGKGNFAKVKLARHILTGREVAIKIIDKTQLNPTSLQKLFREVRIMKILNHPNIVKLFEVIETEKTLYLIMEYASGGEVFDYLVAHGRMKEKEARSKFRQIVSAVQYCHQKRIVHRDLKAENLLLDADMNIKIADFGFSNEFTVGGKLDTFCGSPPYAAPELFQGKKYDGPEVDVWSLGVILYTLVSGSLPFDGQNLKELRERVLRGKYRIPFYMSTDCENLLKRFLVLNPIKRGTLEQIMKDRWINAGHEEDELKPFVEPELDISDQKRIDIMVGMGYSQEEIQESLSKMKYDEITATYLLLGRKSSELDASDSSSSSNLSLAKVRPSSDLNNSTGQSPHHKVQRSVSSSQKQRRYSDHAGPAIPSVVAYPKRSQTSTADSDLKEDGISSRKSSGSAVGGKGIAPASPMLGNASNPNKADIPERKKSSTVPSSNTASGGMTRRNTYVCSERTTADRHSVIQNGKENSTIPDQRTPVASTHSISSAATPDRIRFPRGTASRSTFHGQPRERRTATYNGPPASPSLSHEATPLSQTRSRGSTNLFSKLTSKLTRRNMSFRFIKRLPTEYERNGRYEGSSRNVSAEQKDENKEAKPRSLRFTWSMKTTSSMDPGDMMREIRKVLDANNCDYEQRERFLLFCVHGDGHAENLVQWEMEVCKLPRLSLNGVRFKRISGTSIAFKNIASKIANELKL
Also: in the data inactive means no Kd found up to 30 µM.

Row | SMILES | Kd [1] | Kd [2] | Kd [3] | Kd [4] | Kd [5] | Kd [6]
1 | CCN(CCCOc1ccc2c(Nc3cc(CC(=O)Nc4cccc(F)c4)n[nH]3)ncnc2c1)CCOP(=O)(O)O [BARASERTIB] | > 30 µM (inactive) | > 30 µM (inactive) | > 30 µM (inactive) | > 30 µM (inactive) | > 30 µM (inactive) | 
2 | O=C(Nc1ccc(OC(F)(F)F)cc1)c1sccc1NCc1ccnc2ccccc12 [OSI-930] | > 30 µM (inactive) | > 30 µM (inactive) | > 30 µM (inactive) | > 30 µM (inactive) | > 30 µM (inactive) | > 30 µM (inactive)
3 | COc1cc2c(Oc3ccc4[nH]c(C)cc4c3F)ncnc2cc1OCCCN1CCCC1 [CEDIRANIB] | > 30 µM (inactive) |  |  | > 30 µM (inactive) |  | 
4 | N#CCNC(=O)c1ccc(-c2ccnc(Nc3ccc(N4CCOCC4)cc3)n2)cc1 [MOMELOTINIB] | > 30 µM (inactive) | > 30 µM (inactive) |  | > 30 µM (inactive) | > 30 µM (inactive) | 
5 | CCN1CCN(Cc2ccc(Nc3ncc(F)c(-c4cc(F)c5nc(C)n(C(C)C)c5c4)n3)nc2)CC1 [ABEMACICLIB] | > 30 µM (inactive) | > 30 µM (inactive) | > 30 µM (inactive) |  | > 30 µM (inactive) | > 30 µM (inactive)
6 | COc1cc(F)c(F)c(Nc2ccc(I)cc2F)c1NS(=O)(=O)C1(C[C@H](O)CO)CC1 [REFAMETINIB] |  | > 30 µM (inactive) | > 30 µM (inactive) | > 30 µM (inactive) | > 30 µM (inactive) | > 30 µM (inactive)
7 | Cc1c(NC(=O)OC[C@@H]2COCCN2)cn2ncnc(Nc3ccc4c(cnn4Cc4cccc(F)c4)c3)c12 [AC-480] |  | > 30 µM (inactive) | > 30 µM (inactive) | > 30 µM (inactive) | > 30 µM (inactive) | > 30 µM (inactive)
8 | C[C@]1(O)C[C@@H](c2nc(-c3ccc4ccc(-c5ccccc5)nc4c3)c3c(N)nccn32)C1 [LINSITINIB] | > 30 µM (inactive) | > 30 µM (inactive) | 15.4 µM (active) |  | > 30 µM (inactive) | 
9 | O=S(=O)(c1cccc2cnccc12)N1CCCNCC1 [FASUDIL] | > 30 µM (inactive) | > 30 µM (inactive) | > 30 µM (inactive) |  | > 30 µM (inactive) | > 30 µM (inactive)
10 | CN(c1ncccc1CNc1nc(Nc2ccc3c(c2)CC(=O)N3)ncc1C(F)(F)F)S(C)(=O)=O [PF-00562271] | > 30 µM (inactive) | 0.012 µM | > 30 µM (inactive) | 1.51 µM (active) | > 30 µM (inactive) | 
11 | C=CCN(/C=C1/C(=O)O[C@H](COC)[C@@]2(C)C1=C(O)C(=O)C1=C2[C@H](OC(C)=O)C[C@]2(C)C(=O)CC[C@@H]12)CC=C [SONOLISIB] |  | > 30 µM (inactive) | > 30 µM (inactive) | > 30 µM (inactive) | > 30 µM (inactive) | > 30 µM (inactive)
12 | CCc1nc(C(N)=O)c(Nc2ccc(N3CCC(N4CCN(C)CC4)CC3)c(OC)c2)nc1NC1CCOCC1 [GILTERITINIB] | > 30 µM (inactive) | 1.14 µM (active) |  | > 30 µM (inactive) | 0.536 µM (active) | > 30 µM (inactive)
13 | C[C@@]1(C(=O)Nc2ccc(F)nc2)CCCN1c1nc(Nc2cc(C3CC3)n[nH]2)c2cccn2n1 [BMS-754807] | > 30 µM (inactive) |  |  | > 30 µM (inactive) |  | 
14 | CN(C)C/C=C/C(=O)Nc1cc2c(Nc3ccc(F)c(Cl)c3)ncnc2cc1O[C@H]1CCOC1 [AFATINIB] |  |  |  | > 30 µM (inactive) |  | 
15 | CN1CCN(c2nc(C3=C(c4c[nH]c5ccccc45)C(=O)NC3=O)c3ccccc3n2)CC1 [SOTRASTAURIN] | > 30 µM (inactive) | > 30 µM (inactive) | > 30 µM (inactive) |  | > 30 µM (inactive) | > 30 µM (inactive)

Continued, values first:

Row | Kd [1] | Kd [2] | Kd [3] | Kd [4] | Kd [5] | Kd [6] | SMILES
16 | > 30 µM (inactive) | > 30 µM (inactive) | > 30 µM (inactive) | > 30 µM (inactive) | > 30 µM (inactive) | > 30 µM (inactive) | O=C(NC[C@H](O)CO)c1ccncc1Nc1ccc(I)cc1F [PIMASERTIB]
17 | > 30 µM (inactive) | > 30 µM (inactive) | > 30 µM (inactive) | > 30 µM (inactive) | > 30 µM (inactive) | > 30 µM (inactive) | O=C(NOC[C@H](O)CO)c1ccc(F)c(F)c1Nc1ccc(I)cc1F [MIRDAMETINIB]
18 |  | > 30 µM (inactive) | > 30 µM (inactive) | > 30 µM (inactive) | > 30 µM (inactive) | > 30 µM (inactive) | O=c1[nH]c([C@@H]2CCCN2)nc2c1oc1ccc(Cl)cc12
19 | > 30 µM (inactive) | 1.71 µM | > 30 µM (inactive) |  | > 30 µM (inactive) | > 30 µM (inactive) | O=C(O)c1ccc2c(c1)nc(Nc1cccc(Cl)c1)c1ccncc12 [SILMITASERTIB]
20 | > 30 µM (inactive) |  |  | > 30 µM (inactive) |  |  | CC1(C)CNc2cc(NC(=O)c3cccnc3NCc3ccncc3)ccc21 [MOTESANIB]
21 | 0.365 µM |  |  | > 30 µM (inactive) |  |  | Cn1cnc2c(F)c(Nc3ccc(Br)cc3Cl)c(C(=O)NOCCO)cc21 [SELUMETINIB]
22 |  | > 30 µM (inactive) | > 30 µM (inactive) | > 30 µM (inactive) | > 30 µM (inactive) | > 30 µM (inactive) | COc1cc2ncnc(Nc3ccc(F)c(Cl)c3)c2cc1NC(=O)/C=C/CN1CCCCC1 [DACOMITINIB ANHYDROUS]
23 | > 30 µM (inactive) | > 30 µM (inactive) | > 30 µM (inactive) | > 30 µM (inactive) | > 30 µM (inactive) |  | Cn1c(=O)n(-c2ccc(C(C)(C)C#N)cc2)c2c3cc(-c4cnc5ccccc5c4)ccc3ncc21 [DACTOLISIB]
24 |  | > 30 µM (inactive) | > 30 µM (inactive) | > 30 µM (inactive) | > 30 µM (inactive) | > 30 µM (inactive) | c1cc(OCCN2CCCCC2)cc(-c2n[nH]c3ccc(-c4nc[nH]n4)cc23)c1 [CC-401]
